ChEMBL document CHEMBL1131924, “Synthesis and biological evaluation of 1alpha,24-dihydroxy-25-nitrovitamin D3” (1999)

Legend:
[1] = test system: HL-60; assay: Cell differentiation activity towards HL-60 cells assessed in terms of 4-nitro-blue tetrazolium (NBT) reactivity; type: functional, Homo sapiens
[2] = molecular target: T1, Vitamin D3 receptor (Gallus gallus) (UniProt O42392); assay: Relative binding affinity for chick intestinal Vitamin D3 receptor (VDR)
T1 sequence (whole entry): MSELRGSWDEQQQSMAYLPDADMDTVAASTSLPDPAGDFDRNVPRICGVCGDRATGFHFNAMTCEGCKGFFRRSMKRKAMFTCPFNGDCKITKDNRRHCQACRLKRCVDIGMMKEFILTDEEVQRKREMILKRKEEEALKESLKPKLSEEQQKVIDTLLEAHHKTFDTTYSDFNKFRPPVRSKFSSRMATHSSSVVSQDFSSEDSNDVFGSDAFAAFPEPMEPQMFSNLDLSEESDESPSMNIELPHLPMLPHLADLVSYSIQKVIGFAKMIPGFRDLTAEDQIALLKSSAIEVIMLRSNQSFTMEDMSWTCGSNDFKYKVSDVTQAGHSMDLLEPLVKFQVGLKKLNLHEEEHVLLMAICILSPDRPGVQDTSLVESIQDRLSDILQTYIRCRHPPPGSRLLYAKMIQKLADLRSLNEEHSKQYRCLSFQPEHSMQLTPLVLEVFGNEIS

SMILES | Activity [1] | Binding affinity [2]
C=C1/C(=C\C=C2/CCC[C@]3(C)[C@@H]([C@H](C)CC[C@H](O)C(C)C)CC[C@@H]23)C[C@@H](O)C[C@@H]1O | 18 | 10
C=C1/C(=C\C=C2/CCC[C@]3(C)[C@@H]([C@H](C)CC[C@@H](O)C(C)(C)[N+](=O)[O-])CC[C@@H]23)C[C@@H](O)C[C@@H]1O | 182 | 93
C=C1/C(=C\C=C2/CCC[C@]3(C)[C@@H]([C@H](C)CCCC(C)(C)O)CC[C@@H]23)C[C@@H](O)C[C@@H]1O [CALCITRIOL] | 100 | 100
C=C1/C(=C\C=C2/CCC[C@]3(C)[C@@H]([C@H](C)CC[C@H](O)C(C)(C)[N+](=O)[O-])CC[C@@H]23)C[C@@H](O)C[C@@H]1O | 12 | 10
C=C1/C(=C\C=C2/CCC[C@]3(C)[C@@H]([C@H](C)CC[C@@H](O)C(C)C)CC[C@@H]23)C[C@@H](O)C[C@@H]1O [TACALCITOL] | 182 | 131
